Reference: patent US6362216B1, “Compounds which inhibit tryptase activity” (Array Biopharma Inc., priority 1998, dated 2002)

Tests used:
Format in all cases: biochemical
[1] = biological target: T1, Human lung tryptase; assay: Human lung tryptase inhibition, chromogenic GPR-pNA substrate
T1 construct: Human lung tryptase purchased from Cortex Biochem (San Leandro, Calif.) was purified further on a Superdex 200 gel-filtration column
Procedure: (§1) Protease inhibition was assayed according to published procedures with minor modifications using various proteases and specific chromogenic peptide p-nitroanilide substrates. Assays were performed in Costar ultra-low cluster 96-well microtiter plate (Costar Corning Corp., Cambridge Mass.). Each protease was incubated with various concentrations of the test compound for 15 min. at 37° C. or as otherwise indicated, in specific assay buffer, and the residual activity was then measured by addition of the substrate. p-Nitroaniline produced by the proteolysis was determined by measuring the change in absorbance at 405 nm on a SpectraMAX 340 plate reader (Molecular devices, Sunnyvale, Calif.).
(§2) 1. The inhibition constant, Ki is calculated from individual data points using the equation for a tight-binding inhibitor (See Beith, “Proteinase Inhibitors-Proceedings of 2nd Int. Res. Conference”, Fritz, et al. eds., New York, p.4463-4469 (1974)):
vi/vo=[((Ki′+[I]+[E]o)^2−4[I]o[E]o)^½(Ki′+[I]o−[E]o)]/2[E]o
where Ki′ is apparent inhibition constant; vi and vo are the inhibited and uninhibited rates, respectively; [I]o and [E]o are the total concentrations of inhibitor and enzyme, respectively.
[note: [E]o is determined by active site titration of enzyme]
(§3) The Ki values are obtained by correcting Ki ′ values for the effect of substrate concentration according to: [formula]
(§4) 2. Other inhibition data (Ki>>[E]o), the Ki is calculated from using the equations for a competitive inhibitor: [formula]
IC50 is determined by fitting the individual inhibition data point to Sigmoid or four-parameter curve-fit equations.
Human lung tryptase purchased from Cortex Biochem (San Leandro, Calif.) was purified further on a Superdex 200 gel-filtration column. The active-site concentration of the enzyme was determined by spectrophotometric titration with 4-nitrophenyl 4′-guanidinobenzoate according to Schwartz, et al., J. Immunol., 114, 2304-2311 (1990). Tryptase activity was measured according to the procedures of Schwartz, et al., J. Biol. Chem., 261, 7372-7379 (1986) (See also, Schwartz, L. B., Methods In Enzymology, 244, 88 (1994)) with minor modifications, using Tosyl-Gly-Pro-Arg-p-nitroanilide (“GPR-pNA”, Sigma Chemical Co., St. Louis, Mo., T-1637) as a chromogenic substrate. The reaction was performed in 50 mM Tris-HCl, pH 8.0, containing 150 mM NaCl and 0.02% Triton X-100 at 37° C. in Costar ultra-low cluster 96-well microtiter plates (Costar Corning Corp., Cambridge, Mass.). The amount of pNA produced by tryptase was determined by measuring the change in absorbance at 405 nm on a SpectraMAX 340 plate reader (Molecular devices, Sunnyvale, Calif.). The Km for the substrate was determined by Lineweaver-Burk analysis from initial velocities of substrate hydrolysis. The inhibition assay was carried out in a total volume of 200 μL. Tryptase (30 μL-final concentration 1 nM) was incubated with various concentrations of sample compound (50 μL) to be tested in the above assay buffer for 5 min. The reaction was started by the addition of substrate GPR-pNA (40 μL-final concentration 320 μM), and the residual activity was measured after 15 min. of incubation. The inhibition constant, Ki, was determined by fitting the inhibition data to a two-site competitive binding equation using data analysis program GraphPad PRISM (GraphPad Software, Inc., San Diego, Calif.).
(§5) The inhibition constant (Ki) of the test compounds against each proteolytic enzyme was determined according to Zitnik et al., Biochem. Biophys. Res. Commun. 232, 687-697 (1997)).

[2] = biological target: T2, Bovine pancreatic Trypsin (TPCK-treated) (Bos taurus, UniProt P00760); assay: Bovine pancreatic trypsin inhibition, N-α-Benzoyl-L-Arg-pNA substrate
T2 construct: from tissue; host or cells: bovine pancreas
T2 sequence (P00760 24-246): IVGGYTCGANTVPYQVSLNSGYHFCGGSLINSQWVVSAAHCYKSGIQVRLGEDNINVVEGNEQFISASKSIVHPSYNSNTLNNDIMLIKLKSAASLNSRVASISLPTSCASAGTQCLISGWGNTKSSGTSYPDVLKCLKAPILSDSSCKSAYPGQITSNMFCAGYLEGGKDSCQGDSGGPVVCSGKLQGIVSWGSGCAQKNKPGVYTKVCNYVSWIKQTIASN
Procedure: as §1, §2, §3, §4
C. Bovine Pancreatic Trypsin
Bovine pancreatic Trypsin (TPCK-treated) activity was determined by using N-α-Benzoyl-L-Arg-pNA in 50 mM Tris-HCl, pH 8.2, 20 mM CaCl2 (See Somorin, et al., J. Biochem. 85, 157-162 (1979)).
as §5

[3] = biological target: T3, Human plasma thrombin (Homo sapiens, UniProt P00734); assay: Human plasma thrombin inhibition, H-D-Phe-Pip-Arg-pNA substrate
T3 construct: from tissue; host or cells: human plasma
Procedure: as §1, §2, §3, §4
Human plasma thrombin activity was determined by using H-D-Phe-Pip-Arg-pNA in 50 mM Tris-HCl, pH 8.3, 100 mM NaCl, 1% BSA (See Lottenberg, et al., Meth. Enzymol. 80, 341-361 (1981)).
as §5

[4] = tryptase 1 nM, GPR-pNA 320 μM, 50 mM Tris-HCl pH 8.0, 37° C.
[5] = 50 mM Tris-HCl, pH 8.2, 20 mM CaCl2
[6] = 50 mM Tris-HCl, pH 8.3, 100 mM NaCl, 1% BSA

N=C(N)c1ccc2[nH]c(CC(N)=O)nc2c1 [H]
Ki [1, 4]: 31.4 µM

N=C(N)c1ccc2[nH]c(CC(=O)Nc3ccc4[nH]ccc4c3)nc2c1 [5-Indole]
Ki [1, 4]: 0.81 µM | Ki [2, 5]: 21.8 µM | Ki [3, 6]: > 100 µM

N=C(N)c1cccc(NC(=O)Cc2nc3cc(C(=N)N)ccc3[nH]2)c1 [(3-Amidino)Ph]
Ki [1, 4]: 0.52 µM | Ki [2, 5]: 2.2 µM | Ki [3, 6]: > 100 µM

N=C(N)c1ccc2[nH]c(CC(=O)Nc3cccc(N)c3)cc2c1 [drawing 14 Indole 5-carboxamidine n=1 m=0]
Ki [1, 4]: 0.39 µM | Ki [2, 5]: 4 µM | Ki [3, 6]: > 100 µM

N=C(N)c1ccc2cc(C(=O)NCCc3ccc(N)cc3)ccc2c1
Ki [1, 4]: 0.16 µM | Ki [2, 5]: 0.95 µM | Ki [3, 6]: > 100 µM

N=C(N)c1ccc2sc(C(=O)NCCc3ccc(N)cc3)cc2c1
Ki [1, 4]: 0.17 µM | Ki [2, 5]: 8.3 µM | Ki [3, 6]: > 100 µM

N=C(N)c1ccc2[nH]c(CC(=O)NCc3cccc(N)c3)nc2c1 [CH2Ph(3-Amino)]
Ki [1, 4]: 0.49 µM | Ki [2, 5]: 7.5 µM | Ki [3, 6]: > 100 µM

N#Cc1ccc2[nH]c(Cc3nc4cc(C(=N)N)ccc4[nH]3)nc2c1
Ki [1, 4]: 0.1 µM

N=C(N)c1ccc2[nH]c(CC(=O)Nc3ccc4ccccc4c3)nc2c1 [2-Napthyl]
Ki [1, 4]: 5.2 µM

N=C(N)c1ccc2[nH]c(CC(=O)Nc3cccc(O)c3)nc2c1 [(3-OH)Ph]
Ki [1, 4]: 0.57 µM | Ki [2, 5]: 8.7 µM | Ki [3, 6]: > 100 µM

N=C(N)c1ccc2[nH]c(CC(=O)NC3CCN(Cc4ccccc4)CC3)nc2c1 [4-Piperidinyl(N-benzyl)]
Ki [1, 4]: 1.7 µM

N=C(N)c1ccc2[nH]c(CC(=O)NCc3ccccc3)nc2c1 [X = H n = 1]
Ki [1, 4]: 21.8 µM

N=C(N)c1ccc2[nH]c(CC(=O)NCc3ccc(N)cc3)cc2c1 [drawing 15 Indole 5-carboxamidine n=1 m=1]
Ki [1, 4]: 0.44 µM | Ki [2, 5]: 3.4 µM | Ki [3, 6]: 65 µM

N=C(N)c1ccc2[nH]c(CC(=O)NCCc3ccncc3)nc2c1 [CH2CH2(4-Pyridyl)]
Ki [1, 4]: 1.3 µM

CNC(=O)Cc1nc2cc(C(=N)N)ccc2[nH]1 [CH3]
Ki [1, 4]: 42.8 µM

N=C(N)c1ccc(NC(=O)Cc2nc3cc(C(=N)N)ccc3[nH]2)cc1 [(4-Amidino)Ph]
Ki [1, 4]: 0.97 µM | Ki [2, 5]: 1.7 µM | Ki [3, 6]: > 100 µM

N=C(N)c1ccc2[nH]c(CC(=O)Nc3ccc4ncccc4c3)nc2c1 [6-Quinoline]
Ki [1, 4]: 0.34 µM | Ki [2, 5]: 4.6 µM | Ki [3, 6]: > 100 µM

N=C(N)c1ccc2cc(C(=O)NCc3cccc(N)c3)ccc2c1
Ki [1, 4]: 0.08 µM | Ki [2, 5]: 1.3 µM | Ki [3, 6]: > 100 µM

N=C(N)c1ccc2sc(C(=O)NCc3cccc(N)c3)cc2c1
Ki [1, 4]: 0.22 µM | Ki [2, 5]: 9.1 µM | Ki [3, 6]: > 100 µM

CCCNC(=O)Cc1nc2cc(C(=N)N)ccc2[nH]1 [CH2CH2CH3]
Ki [1, 4]: 9.6 µM

N=C(N)c1ccc2sc(C(=O)NCc3ccc(N)cc3)cc2c1
Ki [1, 4]: 0.44 µM | Ki [2, 5]: 8.8 µM | Ki [3, 6]: > 100 µM

CC(=O)Nc1ccc(NC(=O)Cc2nc3cc(C(=N)N)ccc3[nH]2)cc1 [(4-N(H)COCH3)Ph]
Ki [1, 4]: 6.4 µM

N=C(N)c1ccc2cc(C(=O)Nc3cccc(N)c3)ccc2c1
Ki [1, 4]: 0.055 µM | Ki [2, 5]: 0.43 µM | Ki [3, 6]: > 100 µM

N=C(N)c1ccc2[nH]c(CC(=O)NCCc3ccccc3)nc2c1 [X = H n = 2]
Ki [1, 4]: 5.5 µM

N=C(N)c1ccc2[nH]c(CC(=O)Nc3ccccc3)nc2c1 [X = H n = 0]
Ki [1, 4]: 9.5 µM

N=C(N)c1ccc2[nH]c(CC(=O)Nc3ccccn3)nc2c1 [2-Pyridyl]
Ki [1, 4]: 1.2 µM

N=C(N)c1ccc2sc(CC(=O)NCc3cccc(N)c3)cc2c1
Ki [1, 4]: 0.09 µM | Ki [2, 5]: 6.4 µM | Ki [3, 6]: > 100 µM

Cc1cc2cc(CNC(=O)Cc3ccc4cc(C(=N)N)ccc4c3)ccc2[nH]1 [drawing 17 Naphthalene 2,6-substitution n=1]
Ki ([1]; the 5th table, unit inferred): 0.01 µM | Ki ([2]; the 5th table, unit inferred): 0.34 µM | Ki ([3]; the 5th table, unit inferred): > 100 µM

N=C(N)c1ccc2[nH]c(CC(=O)Nc3ccc(S(N)(=O)=O)cc3)nc2c1 [(4-SO2NH2)Ph]
Ki [1, 4]: 2.2 µM

N=C(N)c1ccc2cc(C(=O)NCc3ccc(N)cc3)ccc2c1
Ki [1, 4]: 0.21 µM | Ki [2, 5]: 0.59 µM | Ki [3, 6]: > 100 µM

N=C(N)c1ccc2[nH]c(CC(=O)Nc3cccc(N)c3)nc2c1 [(3-Amino)Ph]
Ki [1, 4]: 0.29 µM | Ki [2, 5]: 14.2 µM | Ki [3, 6]: > 100 µM

N=C(N)c1ccc2[nH]c(CC(=O)NCc3ccc(CN)cc3)nc2c1 [CH2Ph(4-CH2NH2)]
Ki [1, 4]: 2.5 µM

N=C(N)c1ccc2[nH]c(CC(=O)NC3CCCCC3)nc2c1 [Cyclohexyl]
Ki [1, 4]: 36.9 µM

N=C(N)c1ccc2sc(C(=O)Nc3cccc(N)c3)cc2c1
Ki [1, 4]: 0.52 µM | Ki [2, 5]: 14 µM | Ki [3, 6]: > 100 µM

CCNC(=O)Cc1nc2cc(C(=N)N)ccc2[nH]1 [CH2CH3]
Ki [1, 4]: 7.4 µM

CS(=O)(=O)Nc1ccc(NC(=O)Cc2nc3cc(C(=N)N)ccc3[nH]2)cc1 [(4-N(H)SO2CH3)Ph]
Ki [1, 4]: 3.9 µM

N=C(N)c1ccc2[nH]c(CC(=O)Nc3ccc(N)cc3)cc2c1 [drawing 15 Indole 5-carboxamidine n=1 m=0]
Ki [1, 4]: 0.2 µM | Ki [2, 5]: 3.8 µM | Ki [3, 6]: > 100 µM

N=C(N)c1ccc2[nH]c(CC(=O)NCc3ccncc3)nc2c1 [CH2(4-Pyridyl)]
Ki [1, 4]: 4.7 µM

CS(=O)(=O)Nc1cccc(NC(=O)Cc2nc3cc(C(=N)N)ccc3[nH]2)c1 [(3-N(H)SO2CH3)Ph]
Ki [1, 4]: 7.7 µM

N=C(N)c1ccc2cc(CC(=O)Nc3cccc(N)c3)ccc2c1
Ki [1, 4]: 1.2 µM | Ki [2, 5]: 2.1 µM | Ki [3, 6]: > 100 µM
